Key:
HHV-6 HST strain = assay: Suppression of SITH-1 expression by heparin and anti-heparan sulfate peptide in HHV-6-infected U373 cells; assay type: cell-based; conditions: 10 unit/mL reacted with U373 cells at 4° C. for 1 hour before infection; MOI 3; 48 hours
Protocol: U373 astrocytoma cells were removed with use of trypsin-EDTA, and then a medium (10% FBS-containing DMEM) was added, so that the resultant cells were at 1×10^5 cell/mL. Then, the U373 cells were reacted with 10 unit/mL of Novo-Heparin (Mochida Pharmaceutical Co., Ltd.) or 0.1 mM of anti-3-OS Heparan sulfate (HS) peptide trifluoroacetate salt (Sigma-Aldrich) at 4° C. for 1 hour. The U373 cells were also reacted only with a medium as a control at 4° C. for 1 hour. The resultant cells were washed 3 times with a medium. Then, the U373 cells thus washed were infected with a HHV-6 HST strain virus fluid (2.9×10^6 ffu/ml) at a MOI of 3 by centrifugation. Then, the infected cells were cultured at 37° C. for 48 hours in a CO2 incubator.
From the resultant infected cells, RNA was purified by use of an RNeasy Mini Kit (Qiagen) in accordance with the standard protocol. Then, cDNA was synthesized by use of a PrimeScript RT Reagent Kit (Takara Bio). Finally, expression levels of SITH-1 and GAPDH mRNA were measured by a method similar to that used in the above (3.1).

HHV-6 variant B = conditions: presumed value used to choose test concentrations; read-out: IC50 (effective concentration against HHV-6 variant B); cited from earlier work
[1] = system: HHV-6 variant B HST strain; assay: SITH-1 expression in HHV-6-infected U373 cells in the presence of ganciclovir (Real-time PCR); assay type: cell-based; conditions: U373 cultured overnight with drug, one day after infection, relative to ganciclovir(−)
Protocol: In the presence of ganciclovir, human glial cell lines (U373) were infected with HHV-6, and SITH-1 expression levels in the infected cells was detected by use of Real-time PCR.
The U373 cells were cultured overnight in the presence of ganciclovir at concentrations indicated in the graph. Thereafter, the U373 cells were infected with HHV-6 variant B HST strain, and after one day had passed after this infection, the SITH-1 expression levels in the cells were detected by use of Real-time PCR.
With regards to an effective concentration of ganciclovir against HHV-6 variant B, IC50 was presumed to be approximately 10 μM. As such, three concentration levels obtained by 3-fold dilution were used, with 10 μM being a median amount.
FIG. 25 illustrates suppression of SITH-1 expression by ganciclovir. The vertical axis of FIG. 25 represents SITH-1 mRNA expression level as a ratio, where 1 is the ratio for ganciclovir(−). […] When ganciclovir was used in an amount of 3 μM, 10 μM, and 30 μM, SITH-1 mRNA expression levels were reduced by approximately 20%, 40%, and 80% or more, respectively.

C57BL/6NCrS1c mice = assay: Tail suspension test of mice after nasal administration of SITH-1-expressing adenovirus; assay type: in vivo; conditions: 80 mg/L Fluoxetine solution as drinking water from 2 weeks before SITH-1/Adv; test 7 days after nasal administration
Protocol: 8-week-old C57BL/6NCrS1c mice were raised at a room temperature of 24±1° C. and with lights on for 12 hours and off for 12 hours. After each of the mice was anesthetized with use of isoflurane, SITH-1/Adv or empty/Adv in an amount equivalent to 2.5×10^7 ifu was dropped into the nasal cavity, and was then sucked by the mice along with breathing. Then, the mice were returned to raising cages.
7 days after the nasal administration of SITH-1/Adv or empty/Adv, a tail suspension test was carried out for 10 minutes. A period of immobility time was measured with use of TailSuspScanTopScan (CleverSys, Inc.). The tail suspension test was carried out by suspending each mouse by taping the tail 1 cm from the end. […] In the experiment, 30 mice were used in each group.
Statistical significance (* indicates P<0.05, ** indicates P<0.01, and *** indicates P<0.001) was calculated by use of the Mann-Whitney U-test.
Then, it was studied whether or not an SSRI (selective serotonin reuptake inhibitor), which is an antidepressant, would suppress an increase in immobility time, the increase being caused by the nasal administration of the SITH-1/Adv. 80 mg/L of Fluoxetine solution as drinking water was given to 6-week-old mice, and then the mice were raised for 2 weeks. Then, SITH-1/Adv was nasally administered. 7 days after the nasal administration, a tail suspension test was carried out for 10 minutes. […]

HEK293 cells = assay: Effect of intracellular protein expression on intracellular calcium concentration (Fluo 4-AM fluorescence); assay type: cell-based; conditions: protein temporarily overexpressed in HEK293 cells, 24 hours after transfection; vs control vector (S-C protein: vs SITH-1-expressing cell)
Text: In order to express SITH-1, the S-C protein, and the C-S protein intracellularly, pFLAG-CMV-5b (SIGMA-ALDRICH), which is an expression vector for mammals, was used to construct SITH-1/pFLAG-CMV-5b, SITH-CAML/pFLAG-CMV-5b, and CAML-SITH/pFLAG-CMV-5b. In each of the fusion proteins, the spacer (SEQ ID NO: 6) shown in FIG. 1 was inserted between SITH-1 and CAML. pFLAG-CMV-5b was used as a control. Each vector was transfected into HEK293 cells by use of a CalPhos (trademark) Mammalian Transfection Kit (Takara Bio), such that each protein was temporarily overexpressed intracellularly.
A Calcium Kit II-Fluo 4 (Dojindo) was used to cause cells to take up Fluo 4-AM, 24 hours after transfection. Thereafter, an ArrayScan XTI System (ThermoFisher Scientific) was used to measure fluorescence intensities (λex=485 nm, λem=518) in cells expressing the various proteins (700 to 1300 cells per protein type).
FIG. 26 indicates the effects of SITH-1 expression, S-C protein expression, and C-S protein expression on intracellular calcium concentration. Median, maximum, and minimum values are indicated as a box-and-whisker plot. Statistical significance (′ indicates P<0.01) was determined via a multiple comparison test using Scheffe's method.

Molecule: heparin
- SITH-1 expression in U373 cells (HHV-6 HST strain): suppressed

Molecule: Nc1nc(O)c2ncn(COC(CO)CO)c2n1 [ganciclovir]
- IC50 (HHV-6 variant B): ~10 µM
- SITH-1 mRNA expression level reduced by ([1]; ganciclovir 3 μM): approximately 20%
- SITH-1 mRNA expression level reduced by ([1]; ganciclovir 10 μM): ~40%
- SITH-1 mRNA expression level reduced by ([1]; ganciclovir 30 μM): ≥ 80%

Molecule: CNCCC(Oc1ccc(C(F)(F)F)cc1)c1ccccc1 (stereo not shown) [Fluoxetine]
- immobility time increases in SITH-1/Adv nasal administration mice (tail suspension test) (C57BL/6NCrS1c mice): suppressed

B1: SITH-1: HHV-6 latent infection protein, 159 amino acids, SEQ ID NO: 1 (protein)
chain: MGYEEKVSATGKTRLKILACLIVLILAAAITMLTLEIISNQKRTTTDLEAVTVALKHVSTSLASCTESTTSVHTDSVTSQPTKNKESRKKIEGKSPSWVQALTTASGIILLFCIMMIFITCSWTTEKDTEKSEVQSYASSVETLDSLNEAIIPKTEMNV
modifications: Human herpesvirus 6
- intracellular calcium concentration (HEK293 cells): increased
